Reference: publication PMC3788796, “The Antimicrobial Domains of Wheat Puroindolines Are Cell-Penetrating Peptides with Possible Intracellular Mechanisms of Action” (PLoS ONE, 2013)

What was measured:
[1] = Calcein dye leakage from mammalian-mimicking LUVs; assay type: biochemical; details: for % Calcein leakage from DOPC LUVs: LUVs 10 µM phospholipid, 10 mM Tris, 100 mM NaCl pH 7.4, 5 min, fluorescence 496/515 nm, no-peptide control 28.0, average of duplicate experiments
Procedure: A calcein leakage assay as previously described was performed to determine the effects of PIN-based peptides on the permeability of synthetic large unilamellar vesicles (LUVs), designed to mimic bacterial and mammalian cell membranes. The phospholipids used were DOPC (1,2-dioleoyl-sn-glycero-3-phosphocholine), with zwitterionic head groups and DOPG (1,2-dioleoyl-sn-glycerol-3-[phosphor-rac-(1-glycerol)]), with negatively charged headgroups (Avanti® Polar lipids, Alabaster, USA). These were used to make DOPC:DOPG (1∶3) LUVs to mimic bacterial cell membranes, or DOPC only, to mimic mammalian cell membranes. Calcein-entrapped LUVs were prepared by the extrusion method using an Avanti mini extrusion apparatus (Avanti® Polar Lipids, Alabaster, USA). The DOPC:DOPG (a 1∶3 mixture) or DOPC were dissolved in chloroform (25 mg/mL) and aliquoted into glass test tubes to give a concentration of 2.6 mM when resuspended in 2 mL buffer. Chloroform was evaporated under a stream of N2 and the lipid films were dried overnight under vacuum. The films were then resuspended in 2.0 mL of 70 mM calcein buffer (in 10 mM Tris-HCl, pH 7.4) and incubated at room temperature for 30 minutes. To increase entrapment of the dye, five repeated freeze\thaw cycles were used by placing the vial in liquid N2 and then a warm water bath (37°C). The lipid mixture was then extruded through the mini-extruder 10 times through two stacked 0.1 µm pore-size filters. Free calcein was removed by centrifugation (10, 000×g, 10 min) three times and washing with 10 mM Tris, 100 mM NaCl buffer (pH 7.4). Standards of phosphorus (inorganic P; Pi) were prepared (0.05–1.5 mg/mL) using KH2PO4 and read at 820 nm and a linear standard curve was generated (Figure S1 in File S1). The phospholipid concentration of the vesicle preparations was determined by a total phosphorus assay. The assay reagent was prepared fresh by mixing 1 part of 1% ascorbic acid with 6 parts of 0.42% ammonium molybdate•4H2O in H2SO4 and stored on ice. 7 µL of it was added to 3 µL of vesicle suspensions and incubated for 20 min at 45°C. […] The standard curve of phosphorus standards (Figure S1 in File S1) was used to determine the Pi concentration in a LUV preparation, and this was converted to phospholipid concentration (Table S1 in File S1) to adjust the preparations to the required 10 µM phospholipid concentration prior to peptide treatment.
The calcein-filled LUVs were diluted with 10 mM Tris, 100 mM NaCl buffer (pH 7.4) to a final phospholipid concentration of 10 µM. The experiments were performed in a Varian Cary Eclipse fluorescence spectrophotometer with excitation and emission wavelengths of 496 nm and 515 nm, slit widths of […] and a PMT detector of 600 V. The peptides (PuroA, Pina-M, Pina-W→F and PuroB) were added to LUVs to a final peptide concentration of 8–125 µg/mL in 100 µL volumes and the fluorescence (F) monitored for 5 min at 60 s intervals. The total calcein fluorescence (FT) was determined by addition of 1.0% Triton X100. The dye leakage was calculated as % Leakage = ((F – F0)/(FT – F0)), F0 being fluorescence of each sample at T = 0.

[2] = tested on: S. cerevisiae cells; assay: SEM of peptide-treated yeast cells; assay type: cell-based, Saccharomyces cerevisiae; details: sub-MIC: PuroA and Pina-M 64 µg/mL, Pina-W→F 125 µg/mL; 1 h 30°C
Procedure: S. cerevisiae cultures were grown overnight in 5.0 mL of PDB 30°C, to OD600 = 1.2–1.8 (∼5×10^7 cells/mL). 75 µL aliquots of the yeast cell suspension were incubated with 25 µL of PuroA, Pina-M, Pina-W→F or PuroB (at final concentrations of 0.5×, 1× or 2× of the respective MIC for S. cerevisiae; see results) for 1 h at 30°C. The cells were collected by centrifugation (1000×g, 5 min), the pellets washed three times in PBS (pH 7.4) and resuspended in 100 µL MilliQ (ultra-pure) water. A 25 µL aliquot of the cell suspension was spotted onto a glass slide, air-dried, then fixed and dehydrated as described previously. In brief, the air-dried slides were fixed in 2.5% glutaraldehyde (in PBS, pH 7.4) overnight in a humid chamber, then washed with PBS pH 7.4 for 10 min, and dehydrated in an ethanol gradient of 50%, 60%, 70%, 80%, 90% and 100%. The slides were freeze-dried overnight and then coated in a Dynavac CS300 coating unit with carbon and gold, with double sided conducting carbon tape attached to the slides for better conductivity. The samples were analysed using a ZEISS supra 10 VP field emission scanning electron microscope (Carl Zeiss Microscopy, NY, USA) at 3.0 kV.

[3] = tested on: S. cerevisiae cells; assay: Propidium iodide uptake by yeast cells; assay type: cell-based, Saccharomyces cerevisiae; details: for % fluorescent cells (propidium iodide uptake): 1 h 30°C in PBS pH 7.4, PI 6 µg/mL 5 min, no-peptide control 5.7, average of 4 fields, two independent experiments
Procedure: S. cerevisiae was grown overnight at 30°C in 100 mL PDB and the cells collected by centrifugation and resuspended in Phosphate Buffered Saline (PBS: 137 mM NaCl, 2.7 mM KCl, 8 mM Na2HPO4, 1.46 mM KH2PO4; pH 7.4) to ∼1.5×10^7 cells/mL (OD600 = 0.6–0.8). 75 µL of the suspension was incubated with 25 µL of stock solutions of PuroA, Pina-M, Pina-W→F, PuroB and indolicidin (to give a final peptide concentration of 64, 125, 250 or 500 µg/mL), or with PBS (for no-peptide controls) for 1 h at 30°C, followed by staining with propidium iodide (PI) as described. PI stock solution (60 µg/mL) was prepared in MilliQ water and stored in dark at −20°C. It was diluted to 12 µg/mL before use, mixed 1∶1 with peptide-treated or untreated yeast cells (to final PI concentration 6 µg/mL), and the samples incubated in the dark for 5 min. A 10 µL aliquot of these was examined using a Nikon Eclipse 50 i fluorescence microscope with 561 nm excitation and 630/22 emission filter, at 400×magnification. The photomicrographs were taken under light and fluorescence for each field. Five randomly selected fields were recorded and scored for each sample.

FPVTFRFFKFFKG-NH2 [Pina-W→F, PuroA-based peptide with all Trps substituted with Phe residues]
dye leakage from the DOPC LUVs (in words) ([1]; over all tested concentrations, even at high concentration): no significant leakage
% Calcein leakage from DOPC LUVs ([1]; peptide 8 µg/mL): 28.0%
% Calcein leakage from DOPC LUVs ([1]; peptide 16 µg/mL): 27.0%
% Calcein leakage from DOPC LUVs ([1]; peptide 32 µg/mL): 27.0%
% Calcein leakage from DOPC LUVs ([1]; peptide 64 µg/mL): 31.0%
% Calcein leakage from DOPC LUVs ([1]; peptide 125 µg/mL (highest for PuroA, Pina-M, Pina-W→F)): 36.0%
surface morphology of yeast cells (SEM) at sub-MIC level [2]: shallow pits or pores on the surface
% fluorescent cells (propidium iodide uptake) ([3]; peptide 64 µg/mL): 56.5%
% fluorescent cells (propidium iodide uptake) ([3]; peptide 125 µg/mL): 72.3%
% fluorescent cells (propidium iodide uptake) ([3]; peptide 250 µg/mL): 100%
% fluorescent cells (propidium iodide uptake) ([3]; peptide 500 µg/mL): 100%
cells permeable to propidium iodide at sub-MIC levels ([3]; peptide below its MIC against yeast): 56–72%
cells permeable to propidium iodide at MIC levels and higher ([3]; peptide equal to or greater than its MIC for yeast): 100%
